{"source": "patent US20090022670A1", "about": "“NOVEL COMPOUNDS” (priority 2007, published 2009)", "key": {"[1]": {"target": "T1, rat Orexin-1 receptor (Rattus norvegicus, UniProt P56718)", "T1 construct": "expressed in transfected cells", "T1 sequence (P56718 1-416)": "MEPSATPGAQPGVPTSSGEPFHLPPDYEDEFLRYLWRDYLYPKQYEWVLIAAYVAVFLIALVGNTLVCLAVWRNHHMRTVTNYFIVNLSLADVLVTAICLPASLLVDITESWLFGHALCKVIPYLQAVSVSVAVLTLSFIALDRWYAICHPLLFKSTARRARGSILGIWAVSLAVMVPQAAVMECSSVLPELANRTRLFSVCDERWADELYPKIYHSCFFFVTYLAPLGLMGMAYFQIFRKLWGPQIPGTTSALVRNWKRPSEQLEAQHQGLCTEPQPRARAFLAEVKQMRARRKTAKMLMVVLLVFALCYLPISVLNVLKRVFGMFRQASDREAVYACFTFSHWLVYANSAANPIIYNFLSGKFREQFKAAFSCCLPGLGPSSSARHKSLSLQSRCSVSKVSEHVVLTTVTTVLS", "assay": "FLIPR antagonist affinity at cloned rat OX1 receptor (RBL cells)", "assay_type": "cell-based", "details": "read-out: fpKi", "source_text": "(§1) Determination of Antagonist Affinity at Human Orexin-1 and 2 Receptors Using FLIPR\n(§2) Adherent Chinese Hamster Ovary (CHO) cells, stably expressing the recombinant human Orexin-1 or human Orexin-2 receptors or Rat Basophilic Leukaemia Cells (RBL) stably expressing recombinant rat Orexin-1 or rat Orexin-2 receptors were maintained in culture in Alpha Minimum Essential Medium (Gibco/Invitrogen, cat. no.; 22571-020), supplemented with 10% decomplemented foetal bovine serum (Life Technologies, cat. no. 10106-078) and 400 μg/mL Geneticin G418 (Calbiochem, cat. no. 345810). Cells were grown as monolayers under 95%:5% air:CO2 at 37° C. […]\n(§3) Compounds of the invention were tested in a final assay concentration range from 1.66×10^−5M to 1.58×10^−11 M. Compounds of the invention were dissolved in dimethylsulfoxide (DMSO) at a stock concentration of 10 mM. […] This final concentration of hOrexin A was equivalent to the calculated EC80 for hOrexinA agonist potency in this test system. […]\n(§4) The loaded cells were then incubated for 10 min at 37° C. with test compound. The plates were then placed into a FLIPR™ (Molecular Devices, UK) to monitor cell fluorescence (λex=488 nm, λEM=540 nm) (Sullivan E, Tucker E M, Dale I L. Measurement of [Ca^2+]i using the fluometric imaging plate reader (FLIPR). In: Lambert DG (ed.), Calcium Signaling Protocols. New Jersey: Humana Press, 1999, 125-136). […]"}, "[2]": {"target": "T2, rat Orexin-2 receptor (Rattus norvegicus, UniProt P56719)", "T2 construct": "expressed in transfected cells", "T2 sequence (P56719 1-460)": "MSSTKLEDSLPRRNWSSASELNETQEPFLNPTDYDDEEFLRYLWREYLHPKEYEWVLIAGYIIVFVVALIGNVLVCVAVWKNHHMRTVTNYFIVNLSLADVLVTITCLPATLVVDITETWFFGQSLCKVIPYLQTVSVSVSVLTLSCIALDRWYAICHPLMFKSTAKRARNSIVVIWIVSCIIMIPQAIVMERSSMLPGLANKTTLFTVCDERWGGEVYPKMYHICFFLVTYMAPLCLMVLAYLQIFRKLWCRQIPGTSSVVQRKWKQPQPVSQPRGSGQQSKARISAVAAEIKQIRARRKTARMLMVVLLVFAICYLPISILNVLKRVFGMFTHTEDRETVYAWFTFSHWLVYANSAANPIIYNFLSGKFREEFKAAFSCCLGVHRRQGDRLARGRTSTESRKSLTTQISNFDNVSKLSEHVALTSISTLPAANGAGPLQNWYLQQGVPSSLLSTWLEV", "assay": "FLIPR antagonist affinity at cloned rat OX2 receptor (RBL cells)", "assay_type": "cell-based", "details": "read-out: fpKi", "source_text": "as §1, §2, §3, §4"}, "[3]": {"system": "rats", "details": "cited from earlier work"}, "[4]": {"system": "rats", "details": "cited from earlier work", "remark": "listed apart in the source"}, "[5]": {"system": "rats", "details": "central administration at the onset of the normal sleep period; cited from earlier work"}, "[6]": {"system": "freely-feeding rats", "details": "central administration, 4 hour time period; cited from earlier work"}}, "note": "No end group written: not given here.", "data": [{"compound": "Cc1nc(C(=O)N2CCCC[C@H]2Cc2cn3cccc(F)c3n2)c(-c2ccccc2)s1", "note": "[Example 13, 8-fluoro-2-({(2S)-1-[(2-methyl-5-phenyl-1,3-thiazol-4-yl)carbonyl]-2-piperidinyl}methyl)imidazo[1,2-a]pyridine]", "values": [{"measurement": "Ki", "setting": "[1]", "value": "1 to 5.01", "unit": "nM"}, {"measurement": "Ki", "setting": "[2]", "value": "0.316 to 1", "unit": "nM"}]}, {"compound": "Cc1nc(C(=O)N2CCCC[C@H]2Cc2cn3cc(F)cc(C)c3n2)c(-c2ccccc2)s1", "note": "[Example 31, 6-fluoro-8-methyl-2-({(2S)-1-[(2-methyl-5-phenyl-1,3-thiazol-4-yl)carbonyl]-2-piperidinyl}methyl)imidazo[1,2-a]pyridine]", "values": [{"measurement": "Ki", "setting": "[1]", "value": "1 to 5.01", "unit": "nM"}, {"measurement": "Ki", "setting": "[2]", "value": "0.316 to 1", "unit": "nM"}]}, {"compound": "Cc1nc2ccc(NC(=O)Nc3ccnc4cccnc34)cc2o1", "note": "[SB334867]", "values": [{"measurement": "high-fat pellet self-administration", "setting": "[3]", "value": "attenuated"}, {"measurement": "hedonic eating", "setting": "[4]", "value": "potently reduced"}]}, {"compound": "orexin-A: ligand for the orexin-1 receptor; an agonist of the orexin receptors (QPLPDCCRQKTCSCRLYELLHGAGNHAAGILTL; ends and bridges not checked; cysteine pairing not given here; UniProt O43612 34-66, looked up)", "values": [{"measurement": "arousal", "setting": "[5]", "value": "dose-related increase"}, {"measurement": "increase of food intake over control rats receiving vehicle", "setting": "[6]", "value": "approximately four-fold"}]}]}
